The source of these data is patent US6816257B2, “Method and apparatus for detecting microparticles in fluid samples” (priority 1997, dated 2004).

Structures are written as SMILES.

The test system of this series is B. plicatilis rotifer. Put plainly: Rotifer feeding rate toxicity test (fluosphere ingestion measured by laser fluorescence capillary device). The class given is in vivo, Brachionus plicatilis. How it is done:
Water quality monitoring using rotifers was performed using a capillary tube with an internal diameter of 70 μm, a narrow band, 635 nm, 3 mW diode laser with a beam diameter of 40 μm was used. Interference filters were selected to transmit 12% at 670 nm (20 nm FWM), and 10^−6 at all other wavelengths.
1. A live B. plicatilis rotifer culture was obtained from Aqua-Farms, Fla. These rotifers were chosen because they are easy to raise, and the influence of toxic samples on their feeding, reproduction, and death rates have been studied extensively. The average concentration of rotifers in a 100 ml vial was counted using five 20 μl samples examined under a 50× microscope. […]
2. Two samples of 8 ml each were used to make the feeding rate measurements, a reference sample and test sample. These two vials were filled with the 500 rotifers/ml reference solution.
3. A […] diazanon solution was prepared using the rotifer medium solution, so as to maintain water quality parameters such as pH, O2, alkalinity, salinity, and temperature as constant as possible. A 20 μl amount of the diazanon solution was added to test sample.
4. After a 5 minute incubation, 20 μl of a 40×10^6 beads/ml solution of crimson fluospheres was added to both the reference and test samples. The time was noted as t=0.
5. Using two identical syringes connected with a luer union to a 100 μm piece of nylon tubing terminated with a 20 μm plankton filter, a 50 μl sample was extracted from the reference and test samples. In both cases, the organisms were filtered out from the bead solution.
6. The reference and test samples were successively passed through the test chamber using the syringe pump at a flow rate of 15 μl/min. […]
Each data file was retrieved, using TOXANA™, a time series data analysis software program. […] An assessment of the signal baseline mean and variance values (where no peak is detected) was made for each file. […]
The number of peaks with an intensity above Td were calculated for each file, as well as the average peak intensity, the average peak width, and the average peak area.

As for `CCOP(=S)(OCC)Oc1cc(C)nc(C(C)C)n1` [diazanon], under “exposure to 1 ppm of diazanon, 500 rotifers/ml, FIG. 7B”, the “feeding rate reduced by a factor (vs control sample)” value is listed as 30. In addition, the “ingestion rate per organism” value (test sample containing 1 ppm of diazanon, 500 rotifers/ml, 5 minute incubation, FIG. 7B) is reported as 10^−3 beads/sec. Besides, the feeding rate entry (test sample containing 1 ppm of diazanon, 600 rotifers/ml, FIG. 7C) is recorded as “less than 0.05 beads/min”.
